# Measured values reported in PubChem BioAssay (NCI).
#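 At the GI50, growth is halved. TGI: total growth inhibition.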
# How the values were obtained:
# Test in all cases: NCI tumour cell line growth inhibition, 384-well format
# [1] = test system: U251 glioblastoma
# [2] = test system: EKVX NSCLC
# [3] = test system: 786-0 renal
# [4] = test system: UO-31 renal
# [5] = test system: SNB-19 CNS
# [6] = test system: ACHN renal
# [7] = test system: HOP-92 NSCLC
# [8] = test system: PC-3 prostate
# [9] = test system: SN12C renal
# [10] = test system: SR leukemia
# [11] = test system: HOP-62 NSCLC
# [12] = test system: RXF 393 renal
# [13] = test system: RPMI-8226 leukemia
# [14] = test system: OVCAR-5 ovarian
# [15] = test system: COLO 205 colon
# [16] = test system: SK-OV-3 ovarian
# [17] = test system: MCF7 breast
# [18] = test system: DU-145 prostate
# [19] = test system: M14 melanoma
# [20] = test system: SNB-75 CNS
# [21] = test system: SF-295 CNS
# [22] = test system: MOLT-4 leukemia
# [23] = test system: MDA-MB-231 breast
# [24] = test system: HS 578T breast
# [25] = test system: NCI-H460 NSCLC
# [26] = test system: SF-268 CNS
# [27] = test system: HCT-15 colon
# [28] = test system: SK-MEL-5 melanoma
# [29] = test system: UACC-257 melanoma
# [30] = test system: BT-549 breast
# [31] = test system: HCT-116 colon
# [32] = test system: MDA-MB-468 breast
# [33] = test system: NCI-H522 lung
# [34] = test system: OVCAR-3 ovarian
# [35] = test system: A498 renal
# [36] = test system: NCI-H23 lung
# [37] = test system: LOX IMVI melanoma
# [38] = test system: T-47D breast
# [39] = test system: OVCAR-4 ovarian
# [40] = test system: TK-10 renal
# [41] = test system: CAKI-1 renal
# [42] = test system: MDA-MB-435 melanoma
# [43] = test system: IGROV1 ovarian
# [44] = test system: SK-MEL-28 melanoma
# [45] = test system: NCI/ADR-RES ovarian
# [46] = test system: HL-60(TB) leukemia
# [47] = test system: MALME-3M melanoma
# [48] = test system: OVCAR-8 ovarian
# [49] = test system: KM12 colon
# [50] = test system: SW-620 colon
# [51] = test system: UACC-62 melanoma
# [52] = test system: A549 NSCLC
# [53] = test system: SF-539 CNS
# [54] = test system: NCI-H226 lung
smiles,measurement,setting,value
C=CC(=O)N1CCCC(n2nc(-c3ccc(Oc4ccccc4)cc3)c3c(N)ncnc32)C1 (stereo not drawn),GI50,[1],14 µM
same,TGI,[1],27.1 µM
same,GI50,[2],0.316 µM
same,TGI,[2],16.7 µM
same,GI50,[3],3.78 µM
same,TGI,[3],17.4 µM
same,GI50,[4],6.11 µM
same,TGI,[4],19.9 µM
same,GI50,[5],15 µM
same,TGI,[5],28.4 µM
same,GI50,[6],0.655 µM
same,TGI,[6],17.3 µM
same,GI50,[7],13.6 µM
same,TGI,[7],26.5 µM
same,GI50,[8],14.8 µM
same,TGI,[8],28.1 µM
same,GI50,[9],2.71 µM
same,TGI,[9],16.5 µM
same,GI50,[10],5.35 µM
same,TGI,[10],18.4 µM
same,GI50,[11],15.2 µM
same,TGI,[11],28.6 µM
same,GI50,[12],1.18 µM
same,TGI,[12],6.31 µM
same,GI50,[13],10.5 µM
same,TGI,[13],22.4 µM
same,GI50,[14],18.7 µM
same,TGI,[14],32.8 µM
same,GI50,[15],18.9 µM
same,TGI,[15],33 µM
same,GI50,[16],2.87 µM
same,TGI,[16],20.5 µM
same,GI50,[17],10.3 µM
same,TGI,[17],22.1 µM
same,GI50,[18],4.16 µM
same,TGI,[18],19.2 µM
same,GI50,[19],11.1 µM
same,TGI,[19],23.2 µM
same,GI50,[20],5.51 µM
same,TGI,[20],14 µM
same,GI50,[21],14.7 µM
same,TGI,[21],27.9 µM
same,GI50,[22],1.32 µM
same,TGI,[22],5.02 µM
same,GI50,[23],16.2 µM
same,TGI,[23],29.8 µM
same,GI50,[24],6.88 µM
same,TGI,[24],19.5 µM
same,GI50,[25],16.5 µM
same,TGI,[25],30.1 µM
same,GI50,[26],6.51 µM
same,TGI,[26],20 µM
same,GI50,[27],12.6 µM
same,TGI,[27],25.3 µM
same,GI50,[28],10.9 µM
same,TGI,[28],23 µM
same,GI50,[29],10.6 µM
same,TGI,[29],22.5 µM
same,GI50,[30],3.59 µM
same,TGI,[30],13.3 µM
same,GI50,[31],15.3 µM
same,TGI,[31],28.8 µM
same,GI50,[32],0.0226 µM
same,TGI,[32],0.239 µM
same,GI50,[33],0.0178 µM
same,TGI,[33],0.0859 µM
same,GI50,[34],2.05 µM
same,TGI,[34],15.5 µM
same,GI50,[35],11.5 µM
same,TGI,[35],23.7 µM
same,GI50,[36],16.3 µM
same,TGI,[36],29.9 µM
same,GI50,[37],4.43 µM
same,TGI,[37],19.3 µM
same,GI50,[38],0.0148 µM
same,TGI,[38],17.7 µM
same,GI50,[39],11.2 µM
same,TGI,[39],23.3 µM
same,GI50,[40],0.479 µM
same,TGI,[40],12.1 µM
same,GI50,[41],6.76 µM
same,TGI,[41],19.6 µM
same,GI50,[42],17.2 µM
same,TGI,[42],31.1 µM
same,GI50,[43],0.114 µM
same,TGI,[43],5.9 µM
same,GI50,[44],17.3 µM
same,TGI,[44],31.2 µM
same,GI50,[45],11.3 µM
same,TGI,[45],23.5 µM
same,GI50,[46],15.9 µM
same,TGI,[46],29.4 µM
same,GI50,[47],13.5 µM
same,TGI,[47],26.4 µM
same,GI50,[48],12.1 µM
same,TGI,[48],24.6 µM
same,GI50,[49],14.5 µM
same,TGI,[49],27.7 µM
same,GI50,[50],18.4 µM
same,TGI,[50],32.5 µM
same,GI50,[51],5.71 µM
same,TGI,[51],18.7 µM
same,GI50,[52],12.1 µM
same,TGI,[52],24.5 µM
same,GI50,[53],11.3 µM
same,TGI,[53],23.4 µM
same,GI50,[54],6.21 µM
same,TGI,[54],19.3 µM
